According to US12104173B2, “Method for differentiation of human pluripotent stem cell lines in suspension culture” (AGENCY FOR SCIENCE, TECHNOLOGY AND RESEARCH, priority 2018, dated 2024):

Assays:
[1] = system: X13 induced pluripotent stem cells (iPSCs) on microcarriers; experiment: screening of Wnt pathway activators: mesoderm induction (T-bra, KDR+PDGFRα−) by flow cytometry; format: cell-based, human; conditions: compared to other Wnt pathway modulators
Procedure: (§1) (A) is a column graph showing two different concentrations of seven Wnt pathway activators (BIO, SB-216763, CHIR98014, Inhibitor VIII, Kenpaullone, DRF053 dihydrochloride and Wnt3a). which were selected from literature reviews and screened with CHIR99021 as a control for the disclosed hematopoietic differentiation protocol. The viability of the X13 induced pluripotent stem cells (iPSCs) on microcarriers were tabulated accordingly 24 hours post treatment of the various Wnt pathway modulators. […] (B) is a column graph showing the percentage of mesogerm induction.
Human induced pluripotent stem cell-microcarrier (hiPSC-MC) aggregates (1×10^6 cells/ml, or 1e6 cells/nil) were transferred to mesoderm induction medium (cytokines all from Stemcell Technologies) plus Stemline II Hematopoietic Stem Cell Expansion medium (SL2) in either 6-well ultra-low attachment plates (5 ml) under continuous agitation at 75 rpm or 125 ml spinner flasks (50 ml) under continuous agitation at 36 rpm. Daily medium changes as indicated: Day 0: SL2+30 ng/ml BMP4+50 ng/ml VEGF-165+40 ng/ml Activin A+12-15 μM CHIR-99021; Day 1: SL2+30 ng/ml BMP4+50 ng/ml VEGF-165+40 ng/ml Activin A; Day 2: SL2+20 ng/ml BMP4+30 ng/ml VEGF165+5 ng/ml Activin A+10 ng/ml bFGF+20 ng/ml SCF+0.4 ng/ml β-estradiol. Samples were collected on day 1 and day 3 for flow cytometry analysis of T-brachyury (T-Bra) and KDR/PDGFRα cells, respectively.

[2] = system: X13 induced pluripotent stem cells (iPSCs) on microcarriers; conditions: 24 hours post treatment; 10 μM
Procedure: as §1

[3] = system: hES-3-MC aggregates (agitation culture); experiment: DoE multifactorial mesoderm induction: % KDR+ cells by flow cytometry; format: cell-based, human; conditions: BMP4 10 to 50 ng/ml, Activin A 0-80 ng/ml, CHIR exposure 0 to 24 hours, 4 days post initiation of differentiation
Procedure: (§2) Different doses (and/or duration of exposure) of cytokines and small-molecules with known roles in inducing mesoderm and hematopoietic differentiation were evaluated using the MODDE® software for differentiation of hES-3 MC aggregate cultures initially derived under agitation. The DoE was designed to investigate effects of BMP4 (10-50 ng/ml), Activin A (0 to 80 ng/ml), CHIR (0-15 μM at 0 to 48 hours after start of mesoderm induction). These variables generated 29 culture conditions (FIG. 2A), which were tested for their effects on percent of KDR+ cells (4 days post initiation of differentiation) and the following stage of hematopoietic precursors generation (2 weeks of culture in Blast growth medium (BGM)).
(§3) Design of experiments (DoE) using a resolution IV Fractional Factorial Design was performed using the MODDE software (Sartorius Stedim Biotech, Germany) to evaluate initial BMP4, Activin A and CHIR-99021, doses and duration of exposure for their effects on the following response factors: induction of KDR+ cells 4 days post mesoderm induction or total hematopoietic precursor cells generated 2 weeks post differentiation.
Design of experiments (DoE) using a resolution IV Fractional Factorial Design was performed using the MODDE software (Sartorius Stedim Biotech, Germany) to evaluate initial BMP4, Activin A and CHIR-99021, doses and duration of exposure for their effects on the following response factors: induction of KDR+ cells 4 days post mesoderm induction or total hematopoietic precursors generated 2 weeks post differentiation. […] Computed model with R2 scores>0.5 indicate a model of significant fit, Q2 scores>0.1 indicate a significant model while Q2>0.5 indicate a good model for estimation of future prediction precision, model validity score of <0.25 indicate statistically significant model problems and reproducibility (the variation of the replicates compared to overall variability) should be greater than 0.5. […]

[4] = system: O-neg hiPSC line (D5) expanded in agitated microcarrier cultures; experiment: DoE multifactorial analysis of KDR+ cells, O-neg hiPSC; format: cell-based, human; conditions: CHIR exposure for 24 hours, 4 days post differentiation
From the text: (B) Plot of KDR levels (%) for respective conditions tested (day 4 post differentiation). Conditions 27, 28 and 29 are triplicates of the same condition tested. […] Act=Activin A; CHI=CHIR-99021 for 24 hr, CH2=CHIR-99021 from 24-48 hr; BMP=BMP4. Computed P-values are indicated below the chart.
These findings were also confirmed using an O-neg hiPSC line (D5) expanded in agitated microcarrier cultures (FIG. 6). […] In summary, from the Design of experiment analysis, it was established that a BMP4 dose of 10 to 50 ng/ml, Activin A dose of 25 to 50 ng/ml and exposure of CHIR for 24 hours at a dose of 6 to 12 μM would be efficient for the generation of KDR+ cells.
as §3, with “precursors” for “precursor cells”, “differentiation. […]” for “differentiation.”

[5] = system: hES-3-MC aggregates (agitation culture); experiment: DoE: hematopoietic precursor generation, 14 days in Blast growth medium (BGM); format: cell-based, human; conditions: BMP4 10 to 50 ng/ml, Activin A 0-80 ng/ml, CHIR exposure 0 to 24 hours, 2 weeks in BGM
Procedure: as §2
Design of experiments (DoE) using a resolution IV Fractional Factorial Design was performed using the MODDE software (Sartorius Stedim Biotech, Germany) to evaluate initial BMP4, Activin A and CHIR-99021, doses and duration of exposure for their effects on the following response factors: induction of KDR+ cells 4 days post mesoderm induction or total hematopoietic precursors generated 2 weeks post differentiation. […] Computed model with R2 scores>0.5 indicate a model of significant fit, Q2 scores>0.1 indicate a significant model while Q2>0.5 indicate a good model for estimation of future prediction precision, model validity score of <0.25 indicate statistically significant model problems and reproducibility (the variation of the replicates compared to overall variability) should be greater than 0.5.
Human pluripotent stem cell-microcarrier (HPSC-MC) aggregates (derived from 7 day continuous agitation conditions), equivalent to 5×10^5 cells, were seeded and differentiated in 24-well ultra-low attachment plates with Stemline II medium using multi-factorial conditions as detailed in FIG. 2A and FIG. 6A, as well as in Table 3. […]
Following 4 days of differentiation, single cells were derived from microcarrier aggregates by treatment with TrypLE. […] Fold-expansion was calculated as total number of cells derived after 2 weeks as compared to initial seeding of 1×10^5 cells.

Nc1nc(NCCNc2ncc(-n3ccnc3)c(-c3ccc(Cl)cc3Cl)n2)ccc1[N+](=O)[O-] [CHIR98014]
T-bra expression ([1]; 1 μM): higher T-bra expression | viability of X13 iPSCs on microcarriers [2]: significantly reduced viability

Cn1cc(C2=C(c3ccc(Cl)cc3Cl)C(=O)NC2=O)c2ccccc21 [SB-216763]
T-bra expression ([1]; 5 μM): higher T-bra expression

B1: Activin A: dimeric protein complex comprising two beta-A subunits (protein, UniProt P08476 311-426, looked up)
Inhibin beta A chain: GLECDGKVNICCKKQFFVSFKDIGWNDWIIAPSGYHANYCEGECPSHIAGTSGSSLSFHSTVINHYRMRGHSPFANLKSCCVPTKLRPMSMLYYDDGQNIIKKDIQNMIVEECGCS
modifications: Inhibin beta A chain homodimer
notes: dimeric protein complex comprising two beta-A subunits
effect of factor on percent of KDR+ cells (DoE) [3]: did not significantly alter | effect of factor on KDR+ cells (DoE) [4]: significant factors for increased KDR+ cells | effect of factor on hematopoietic precursor generation (DoE) [5]: did not significantly alter
